# How the values were obtained:
# liver growth [1] = experiment: chart of prostaglandin derivatives: relative potency to increase liver growth; settings: zebrafish, in vivo
# From the text: Another embodiment of the present invention provides for compositions and methods that modulate vertebrate tissue growth or regeneration via the prostaglandin signaling pathway. For example, prostaglandin E2 enhances vertebrate tissue regeneration. A chemical screen in zebrafish identified the prostaglandin signaling pathway as a potent modifier of liver growth during embryonic development. […] As many molecular pathways controlling embryonic development mediate tissue homeostasis in the adult, the effects of prostaglandin signaling during liver regeneration were examined. […] Fish were revived and allowed to heal in fish water.
# liver growth [2] = experiment: liver growth, early experimental evidence; type: in vivo
# [3] = tested on: cKit+Sca1+ Lineage- (KSL) bone marrow cells; experiment: murine transplantation assay with purified HSCs, CFU-S12; type: in vivo, mice
# Experimental: To assess whether prostaglandin levels regulate wnt activity in HSCs, murine transplantation assays were performed utilizing purified HSCs. FACS-isolated cKit+Sca1+ Lineage—(KSL) bone marrow cells were transplanted into lethally irradiated recipients.
# [4] = tested on: hematopoietic stem cells (HSCs); experiment: HSC formation in zebrafish embryos (runx1, c-myb expression), with heat-shock inducible wnt modulators; type: in vivo
# Experimental: The functional consequences of the PGE2/wnt interaction in HSC formation during embryonic development were analyzed by examining the expression of the HSC markers runx1 and c-myb. Heat shock induction of a canonical wnt ligand, wnt8, at ten somites led to enhanced HSC formation at 36 hours post fertilization (hpf; 47/54). When wnt8 induction was followed by exposure to indomethacin (10 μM, 16-36 hpf) HSC formation was reduced to or below wild-type levels ( 43/46).
# Inducible negative regulators of wnt activity were used in combination with dmPGE2 treatment to functionally localize the interaction between the PG and wnt pathways. Dkk1 antagonizes the wnt pathway at the level of membrane binding and the initiation of the wnt signaling cascade. Dkk induction in hs:dkk1 transgenic embryos inhibited HSC development ( 34/49). Exposure to exogenous dmPGE2 rescued the dkk1-mediated effect on HSC formation ( 28/51, 10 μM, 16-36 hpf). Axin is a central component of the β-catenin destruction complex and thus a negative regulator of the wnt signaling cascade in the cytosolic compartment. […] Similarly, a dominant-negative form of the β-catenin transcriptional co-activator TCF abolished HSC formation ( 60/62), and no rescue was affected via dmPGE2 exposure.
# The wnt pathway can actively enhance HSC proliferation through signaling from the HSC niche as well as within HSCs themselves. PGE2 regulates HSC formation at the level of the vascular niche as well as within the HSCs. North et al., 2007. In order to identify transcriptional programs regulated by the wnt signaling pathway, genes involved in HSC development were analyzed by qPCR.
# The functional interaction of signaling processes in the zebrafish, down stream from PG, was explored by increasing camp production using forskolin and inhibiting PKA with H89. […] Furthermore, the rescue of dkk effects by dmPGE2 was eliminated by H89.
# Heat shock activation/repression of wnt signaling: Embryonic heat-shock experiments were conducted at 38° C. for a duration of 20 minutes unless otherwise noted. Genotype was determined by the presence of GFP fluorescence at three hours post heat-induction, non-fluorescence (wild-type) siblings were used as controls.
# (§1) In situ hybridization: Paraformaldehyde (PFA)-fixed embryos were processed for in situ hybridization using standard zebrafish protocols such as those found on the internet at, for example, ZFIN: The Zebrafish Model Organism Database (hosted by the Univ. Oregon, Eugene, Oreg.). The following RNA probes were used to detect alterations in endodermal and liver development: GFP, LFABP, sterol carrier protein, transferrin, foxA3, insulin, trypsin, and IFABP. Changes in expression compared to wild-type controls are reported as the # altered/# scored per genotype; a minimum of three independent experiments were conducted per analysis.
# wnt activity = wnt activity in TOP:dGFP wnt reporter zebrafish embryos (in situ hybridization and qPCR for GFP); type: in vivo; settings: for wnt activity in the developing brain, liver and gut: developing zebrafish, TOP:dGFP
# From the text: An embodiment of the present invention provides for manipulation of the genetic interaction between PGE2 and wnt/β-catenin signaling, which regulates developmental specification of stem cells and regeneration. Briefly, prostaglandin (PG) E2 is required for the formation and function of hematopoietic stem cells (HSCs) in vivo, yet its mechanism of action in these cells is not completely understood.
# The following RNA probes were used to detect alterations in endodermal and liver development: GFP, LFABP, sterol carrier protein, transferrin, foxA3, insulin, trypsin, and IFABP. Changes in expression compared to wild-type controls are reported as the # altered/# scored per genotype; a minimum of three independent experiments were conducted per analysis.
# adult zebrafish liver = experiment: liver regeneration and wound healing after 1/3 partial hepatectomy in adult zebrafish; type: in vivo; settings: for wound healing at the incision site: skin wounds following partial hepatectomy
# From the text: Following ⅓ partial hepatectomy, the zebrafish liver regenerates within five days to seven days.
# As many molecular pathways controlling embryonic development mediate tissue homeostasis in the adult, the effects of prostaglandin signaling during liver regeneration were examined. […] Fish were revived and allowed to heal in fish water.
# To test the requirement of functional prostaglandin signaling during regeneration, fish were exposed to the dual-specific cox inhibitor, indomethacin, from hour 6 to hour 18 following partial hepatectomy.
# Liver Resection: Folling administration of tricaine anesthetic, ⅓ partial hepaectomy of the adult zebrafish liver was performed under brightfield imaging on a dissection microscope. An incision was made using microdissection scissors posterior to the heart on the left lateral portion of the abdomen.
# [5] = tested on: stem and progenitor cell population; experiment: hematopoietic recovery following irradiation in the adult zebrafish (kidney marrow); type: in vivo; settings: zebrafish
# Experimental: It has been hypothesized that wnt activation regulates HSC self-renewal and repopulation. Wnt activation is also thought to be involved in carcinogenesis, however, making the concept of direct enhancement of wnt signaling problematic. Whether regulation of wnt activity by prostaglandin can effectively modulate HSC homeostasis in the adult, was determined by observing hematopoietic recovery following irradiation in the zebrafish. […] APCMin/+ mice have elevated β-catenin levels due to loss of APC function in the destruction complex.
# [6] = tested on: endodermal and hepatic progenitor cells; experiment: endodermal progenitors (foxA3) and liver size (lfabp) in zebrafish embryos, in situ hybridization; type: in vivo
# From the text: To determine whether the interaction of PGE2 and wnt/β-catenin signaling is a conserved regulator of stem and progenitor cell populations in other tissues, endodermal and hepatic progenitor cells were examined during zebrafish development. […] ( 51/56), as detected by expression of liver fatty acid binding protein (lfabp). […] This finding is supported by the detection of various components of PGE2 signaling in foxA3 positive cells.
# The APC mutant zebrafish to model constitutive activation of the wnt signaling pathway, was used to characterize the effects of the wnt/PG interaction in foxA3+ endodermal progenitors at 48 hpf. APC+/− embryos have enhanced foxA3 expression and an increased liver bud ( 88/93) as well as increased liver size ( 68/75) compared to wild-type siblings. […] Both cyclinD1 and cmyc were co-regulated by wnt and prostaglandin during development which may indicate that PGE2 exerts its effects on stem cells through enhanced cell cycling and proliferation.
# as §1
compound,measurement,setting,value
CCCCC[C@H](O)/C=C/[C@H]1[C@H](O)CC(=O)[C@@H]1C/C=C/CCCC(=O)O (relative stereo) [5-trans PGE2],toxicity noted in liver growth chart,liver growth [1],toxic
C[C@]12CC[C@@H]3c4ccc(O)cc4CC[C@H]3[C@@H]1CC[C@@H]2O [3-estradiol],effect on liver growth,liver growth [2],inhibited
CC1=C(/C=C/C(C)=C/C=C/C(C)=C/C(=O)O)C(C)(C)CCC1 [All-trans retinoic acid],effect on liver growth,liver growth [2],enhanced
O=C1Nc2cc(Br)ccc2/C1=C1/Nc2ccccc2/C1=N\O [BIO],CFU-S12 increase,"[3]; BIO 0.05 mg/kg, p=0.03",2 fold
same,early spleen colony formation following bone marrow transplantation,[3]; FIG. 11 legend,enhances early spleen colony formation
CC1=C(/C=C/C(C)=C/C=C/C(C)=C/C=C/C=C(C)/C=C/C=C(C)/C=C/C2=C(C)CCCC2(C)C)C(C)(C)CCC1 [Beta-Carotene],effect on liver growth,liver growth [2],inhibited
O=S(=O)(NCCNC/C=C/c1ccc(Br)cc1)c1cccc2cnccc12 [H89],effect on increased HSC formation induced by dmPGE2,[4]; PKA inhibition,reduced the increased HSC formation
same,effect on the rescue of dkk effects by dmPGE2,[4]; PKA inhibition,eliminated
"CCCCC[C@H](O)/C=C/[C@H]1[C@H](O)CC(=O)[C@@H]1C/C=C\CCCC(=O)O [PGE2, Prostaglandin E2]","wnt activity in the developing brain, liver and gut",wnt activity,increased wnt activity
same,wound healing at the incision site,adult zebrafish liver,heal faster and to a greater extent
CC1=C(/C=C/C(C)=C/C=C/C(C)=C/CO)C(C)(C)CCC1 [Retinol],effect on liver growth,liver growth [2],enhanced
"CCCCC(C)(C)[C@H](O)/C=C/[C@H]1[C@H](O)CC(=O)[C@@H]1C/C=C\CCCC(=O)O [dmPGE2, dimethyl-prostaglandin E2]",wnt-active cells in the aorta-gonad mesonephros (AGM),"wnt activity; 10 μM, vs. 3±1.8 cells",12±3.4 cells
same,"wnt activity in the developing brain, liver and gut",wnt activity,enhance wnt signaling
same,"induction of wnt activity, qPCR for GFP",wnt activity; whole embryo extracts,2 fold
same,rescue of axin-mediated inhibition of HSC formation,[4]; axin induced at ten somites,could not be overcome
same,rescue of dominant-negative TCF-mediated loss of HSC formation,[4]; dnTCF induction,no rescue
same,rescue of dkk1-mediated effect on HSC formation (# altered/# scored),"[4]; hs:dkk1 embryos, 10 μM, 16-36 hpf",28/51
same,"effects of wnt8/dkk1 induction on runx1, cmyb, flk1, ephB2 expression (qPCR)","[4]; indomethacin added to wnt8, dmPGE2 added to dkk1",could be modified
same,kidney marrow repopulation following injury,[5],enhance kidney marrow repopulation
same,enhanced endodermal progenitors (# altered/# scored),[6]; APC+/− embryos,47/54
same,enhanced liver size (# altered/# scored),[6]; APC+/− embryos,75/81
same,rescue of liver growth inhibited by morpholino knock-down of cox1 or cox2,[6]; exogenous dmPGE2,rescued fully
same,expanded foxA3 population with increased liver anlage (# altered/# scored),[6]; wild-type embryos,75/83
same,increased liver size (# altered/# scored),[6]; wild-type embryos,88/92
same,liver size / liver development compared to controls,"[6]; zebrafish embryos, by 72 hours post-fertilization",enhanced liver development
same,liver vascularity,adult zebrafish liver; compared to untreated fish,increases in liver vascularity
same,liver regrowth compared to controls,adult zebrafish liver; exposure following resection (indomethacin hour 6 to 18; day 1 and day 3),enhanced liver regrowth
same,complete regeneration of the liver,adult zebrafish liver; indomethacin: by day 5 post-resection,faster complete regeneration
same,wound healing at the incision site,adult zebrafish liver,more rapid wound healing
BMS189453,effect on liver growth,liver growth [2],inhibited
Vitamin D,effect on liver growth,liver growth [2],enhanced

# Reference: patent US10736906B2, “Method to enhance tissue regeneration” (CHILDREN'S MEDICAL CENTER CORPORATION, priority 2006, dated 2020)
